Source: patent US11149036B2, “3-(1H-pyrazol-4-yl)pyridine allosteric modulators of the M4 muscarinic acetylcholine receptor” (Merck Sharp & Dohme Corp., priority 2017, dated 2021)

What follows are compounds tested against T1, human M4 muscarinic acetylcholine receptor (Homo sapiens, UniProt P08173) (assay: human FLIPR-based M4 PAM assay (CHO-K1 cells with human M4 receptor and Gaqi5, calcium dye fluorescence)). Settings: inflection point (IP) of dose response curve, acetylcholine added at 20% of maximum response, read-out: M4 FLIPPR Hu IP.
T1 construct: expressed in transfected cells; host or cells: CHO-K1
T1 sequence (P08173 1-479): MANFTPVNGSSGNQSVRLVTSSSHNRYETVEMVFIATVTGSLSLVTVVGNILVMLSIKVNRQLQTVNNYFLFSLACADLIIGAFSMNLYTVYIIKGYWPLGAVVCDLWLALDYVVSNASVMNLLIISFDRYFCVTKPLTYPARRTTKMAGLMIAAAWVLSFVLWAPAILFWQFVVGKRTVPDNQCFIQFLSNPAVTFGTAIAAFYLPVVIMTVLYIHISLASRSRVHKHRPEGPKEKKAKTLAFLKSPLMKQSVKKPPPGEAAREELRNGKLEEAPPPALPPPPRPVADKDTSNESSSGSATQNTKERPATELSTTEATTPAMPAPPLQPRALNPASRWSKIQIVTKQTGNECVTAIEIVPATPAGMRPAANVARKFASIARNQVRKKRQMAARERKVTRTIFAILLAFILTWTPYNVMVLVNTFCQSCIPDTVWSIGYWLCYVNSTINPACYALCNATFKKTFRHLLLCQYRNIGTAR
Format: cell-based
Procedure, shortened: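 CHO-K1 cells stably expressing human M4 with chimeric Gaqi5, calcium-dye loaded ~1 h at 37° C; compound added at increasing concentrations 4 min before acetylcholine at an EC20 concentration (sometimes a further EC70 addition).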
Work on `Cc1nnc2cc(-c3nc(C#N)c(F)cc3-c3cnn(CC4(F)CCCC4)c3)ccn12` [Example 90, 3-fluoro-5-(1-((1-fluorocyclopentyl)methyl)-1H-pyrazol-4-yl)-6-(3-methyl-[1,2,4]triazolo [4,3-a]pyridin-7-yl)picolinonitrile] yielded an EC50 of 42 nM. Compound `N#Cc1nc(-c2ccn3cc(C(F)(F)F)nc3c2)c(-c2cnn(CC3(F)CCCC3)c2)cc1F` [Example 91, 3-fluoro-5-(1-((1-fluorocyclopentyl)methyl)-1H-pyrazol-4-yl)-6-(2-(trifluoromethyl)imidazo [1,2-a]pyridin-7-yl)picolinonitrile] has an EC50 of 33 nM. Work on `COc1cc2ccc(-c3nc(F)ccc3-c3cnn(CC4(C)CCCC4)c3)cc2nn1` [Example 92, 7-(6-fluoro-3-(1-((1-methylcyclopentyl)methyl)-1H-pyrazol-4-yl)pyridin-2-yl)-3-methoxycinnoline] yielded an EC50 of 4 nM. Work on `Cc1cc(-c2cnn(CC3(C)CCCC3)c2)c(-c2ccn3ccnc3c2)nc1F` [Example 93, 7-(6-fluoro-5-methyl-3-(1-((1-methylcyclopentyl)methyl)-1H-pyrazol-4-yl)pyridin-2-yl)imidazo[1,2-a]pyridine] yielded an EC50 of 34 nM. Compound `Cc1cc(-c2cnn(CC3(F)CCCC3)c2)c(-c2ccn3ccnc3c2)nc1F` [Example 94, 7-(6-fluoro-3-(1-((1-fluorocyclopentyl)methyl)-1H-pyrazol-4-yl)-5-methylpyridin-2-yl) imidazo[1,2-a]pyridine] has an EC50 of 35 nM. `Fc1cnc(-c2ccc3cccnc3c2)c(-c2cnn(CC3(F)CCCC3)c2)c1` [Example 95, 7-(5-fluoro-3-(1-((1-fluorocyclopentyl)methyl)-1H-pyrazol-4-yl)pyridin-2-yl) quinoline] showed an EC50 of 80 nM. Work on `Cc1cn2ccc(-c3ncc(F)cc3-c3cnn(CC4(F)CCCC4)c3)cc2n1` [Example 96, 7-(5-fluoro-3-(1-((1-fluorocyclopentyl)methyl)-1H-pyrazol-4-yl)pyridin-2-yl)-2-methylimidazo[1,2-a] pyridine] yielded an EC50 of 35 nM. In the case of `Cc1nc2cc(-c3ncc(F)cc3-c3cnn(CC4(F)CCCC4)c3)ccn2c1C` [Example 97, 7-(5-fluoro-3-(1-((1-fluorocyclopentyl)methyl)-1H-pyrazol-4-yl)pyridin-2-yl)-2,3-dimethylimidazo[1,2-a] pyridine], the EC50 is reported as 68 nM. `Fc1cnc(-c2ccn3cc(C(F)(F)F)nc3c2)c(-c2cnn(CC3(F)CCCC3)c2)c1` [Example 98, 7-(5-fluoro-3-(1-((1-fluorocyclopentyl)methyl)-1H-pyrazol-4-yl)pyridin-2-yl)-2-(trifluoromethyl)imidazo [1,2-a]pyridine] gave an EC50 of 82 nM. `Cc1nc2cc(-c3ncc(F)cc3-c3cnn(CC4(F)CCCC4)c3)ccc2n1C` [Example 99, 5-(5-fluoro-3-(1-((1-fluorocyclopentyl)methyl)-1H-pyrazol-4-yl)pyridin-2-yl)-1,2-dimethyl-1H-benzo[d]imidazole] gave an EC50 of 83 nM. Work on `O=C1c2cc(-c3ncc(F)cc3-c3cnn(CC4(F)CCCC4)c3)ccc2CN1C1CC1` [Example 101, 2-cyclopropyl-6-(5-fluoro-3-(1-((1-fluorocyclopentyl)methyl)-1H-pyrazol-4-yl)pyridin-2-yl) isoindolin-1-one] yielded an EC50 of 69 nM. In the case of `Cc1nc2cc(-c3ncc(F)cc3-c3cnn(CC4C[C@@H](F)[C@H](F)C4)c3)ccc2n1C` [Example 102], the EC50 is reported as 232 nM. For `CC1(Cn2cc(-c3c(C#N)ccnc3-c3ccc4cccnc4c3)cn2)CCCC1` [Example 103, 3-(1-((1-methylcyclopentyl)methyl)-1H-pyrazol-4-yl)-2-(quinolin-7-yl)isonicotinonitrile], the EC50 was 45 nM. `FC(F)(F)c1ccc(-c2cnn(CC3CCCC3)c2)c(-c2ccc3cccnc3c2)n1` [Example 104, 7-(3-(1-(cyclopentylmethyl)-1H-pyrazol-4-yl)-6-(trifluoromethyl)pyridin-2-yl)quinoline] showed an EC50 of 20 nM. In the case of `COc1cc2ccc(-c3nc(C)c(C#N)cc3-c3cnn(CC4(C)CCCC4)c3)cc2nn1` [Example 105, 6-(3-methoxycinnolin-7-yl)-2-methyl-5-(1-((1-methylcyclopentyl)methyl)-1H-pyrazol-4-yl)nicotinonitrile], the EC50 is reported as 17 nM. `Cc1nc(-c2cnc3c(c2)ncn3C)c(-c2cnn(CC3(C)CCCC3)c2)cc1C#N` [Example 106, 2-methyl-6-(3-methyl-3H-imidazo[4,5-b]pyridin-6-yl)-5-(1-((1-methylcyclopentyl)methyl)-1H-pyrazol-4-yl)nicotinonitrile] was tested, and the EC50 was 82 nM. For `Cn1cnc2cc(-c3nccc(F)c3-c3cnn(CC4(C)CCCC4)c3)cnc21` [Example 107, 6-(4-fluoro-3-(1-((1-methylcyclopentyl)methyl)-1H-pyrazol-4-yl)pyridin-2-yl)-3-methyl-3H-imidazo[4,5-b] pyridine], the EC50 was 36 nM. Compound `Cn1cnc2cc(-c3nc(C(F)F)ccc3-c3cnn(CC4(F)CCCC4)c3)cnc21` [Example 108, 6-(6-(difluoromethyl)-3-(1-((1-fluorocyclopentyl)methyl)-1H-pyrazol-4-yl)pyridin-2-yl)-3-methyl-3H-imidazo[4,5-b] pyridine] has an EC50 of 86 nM. For `Cn1cnc2cc(-c3ncc(Cl)cc3-c3cnn(CC4(C)CCCC4)c3)cnc21` [Example 109, 6-(5-chloro-3-(1-((1-methylcyclopentyl)methyl)-1H-pyrazol-4-yl)pyridin-2-yl)-3-methyl-3H-imidazo[4,5-b] pyridine], the EC50 was 69 nM. With `Cc1cn2ccc(-c3ncc(Cl)cc3-c3cnn(CC4(F)CCCC4)c3)cc2n1` [Example 110, 7-(5-chloro-3-(1-((1-fluorocyclopentyl)methyl)-1H-pyrazol-4-yl)pyridin-2-yl)-2-methylimidazo[1,2-a] pyridine] the EC50 was 23 nM. In the case of `FC(F)c1cn2ccc(-c3ncc(Cl)cc3-c3cnn(CC4(F)CCCC4)c3)cc2n1` [Example 111, 7-(5-chloro-3-(1-((1-fluorocyclopentyl)methyl)-1H-pyrazol-4-yl)pyridin-2-yl)-2-(difluoromethyl)imidazo [1,2-a]pyridine], the EC50 is reported as 38 nM. In the case of `Cc1cnc(-c2ccn3ccnc3c2)c(-c2cnn(CC3(C)CCCC3)c2)c1` [Example 112, 7-(5-methyl-3-(1-((1-methylcyclopentyl)methyl)-1H-pyrazol-4-yl)pyridin-2-yl)imidazo[1,2-a] pyridine], the EC50 is reported as 46 nM. `Cc1cnc(-c2ccn3ncnc3c2)c(-c2cnn(CC3(C)CCCC3)c2)c1` [Example 113, 7-(5-methyl-3-(1-((1-methylcyclopentyl)methyl)-1H-pyrazol-4-yl)pyridin-2-yl)-[1,2,4]triazolo[1,5-a] pyridine] gave an EC50 of 79 nM. With `COc1nc(-c2ccn3cc(C)nc3c2)c(-c2cnn(CC3(F)CCCC3)c2)cc1F` [Example 114, 7-(5-fluoro-3-(1-((1-fluorocyclopentyl)methyl)-1H-pyrazol-4-yl)-6-methoxypyridin-2-yl)-2-methylimidazo[1,2-a]pyridine] the EC50 was 140 nM. `Cc1cn2ccc(-c3nc(Cl)ccc3-c3cnn(CC4(C)CCCC4)c3)cc2n1` [Example 115, 7-(6-chloro-3-(1-((1-methylcyclopentyl)methyl)-1H-pyrazol-4-yl)pyridin-2-yl)-2-methylimidazo[1,2-a] pyridine] was tested, and the EC50 was 21 nM.
